Measured values reported in US20130018109A1, “Skin and hair treatments” (priority 2011, published 2013).

How the values were obtained:
mice = settings: according to published information; cited from earlier work
migraine headaches = experiment: Use of linalool shampoo by individuals suffering from migraines; type: in vivo, human; settings: same individual, prescription drug taken before the shampoo use
Text: One individual who had suffered from migraines for several years and who had taken the prescription drug Prozac® with only limited benefits, started using a commercial product, Ivory Shampoo®, with approximately 1% by volume of linalool added. […] Other commercially available shampoos containing little perfume with approximately 1% by volume of linalool added were substituted for the Ivory Shampoo with linalool and the benefit persisted. Another commercially available shampoo that has been used with about 1% by volume of linalool added is Botanical Nutrients® soyflower shampoo containing: water; extracts of geranium maculatum (geranium), Echinacea angustifolia (coneflower), and lavendula angustifolia (lavender); ammonium lauryl sulfate; decyl glucoside; cocoamide MEA; PPG-5-ceteth-10-phosphatel cocoamidopropyl betaine; fragrance; polyquatemium-7; glycerin; panthenol; hydrolyzed soy protein; isostearamidopropyl morpholine lactate; vitamin E; disodium wheat germamido PEG-2 sulfosuccinate; guar hydroxypropyl ammonium chloride; PEG-150 distearate; PEG-30 castor oil; PEG-12 dimethicone; benzophenone-4; disodium EDTA; diazolidinyl urea; methylparaben; and citric acid. Another shampoo that has been used is Bath & Body Works® Bio balancing shampoo.
When this individual stopped using the commercial shampoos containing about 1% linalool, a migraine headache was experienced. […]

C=C(C)[C@H]1CC=C(C)CC1 [Limonene]
tumors in mice (mice): shown to cause tumors in mice

CNCCC(Oc1ccc(C(F)(F)F)cc1)c1ccccc1 (centres unmarked) [Prozac]
prevention of migraine headaches by prescription drug (migraine headaches): had not prevented migraine headaches
